# Literature values, collected in patent publication US9125953B2, “Halogenated ether complex” (SAPIOTEC GMBH, priority 2010, dated 2015).
structure (smiles),measurement,value
OC[C@H]1O[C@@H]2O[C@H]3[C@H](O)[C@@H](O)[C@@H](O[C@H]4[C@H](O)[C@@H](O)[C@@H](O[C@H]5[C@H](O)[C@@H](O)[C@@H](O[C@H]6[C@H](O)[C@@H](O)[C@@H](O[C@H]7[C@H](O)[C@@H](O)[C@@H](O[C@H]1[C@H](O)[C@H]2O)O[C@@H]7CO)O[C@@H]6CO)O[C@@H]5CO)O[C@@H]4CO)O[C@@H]3CO [α-cyclodextrin],solubility of unsubstituted α-cyclodextrin in water,14.5 % by weight
